{
  "source": "patent US20230013336A1",
  "about": "“SYNECHOCOCCUS ELONGATUS MUTANTS, VARIANTS AND USES THEREOF TO PRODUCE AN ESSENTIAL AMINO ACID” (Purdue Research Foundation, priority 2021, published 2023)",
  "test_system": "PCC 11801",
  "experiment": "MMS mutagenesis kill rate",
  "format": "cell-based, Synechococcus elongatus sp. PCC 11801",
  "conditions": "1% (v/v) MMS for 90 seconds, quenched with 5% sodium thiosulfate",
  "description": "Random mutagenesis was performed by modifying a previously described protocol (Deshpande et al. (2020), infra) with methylmethanesulfonate (MMS) and ultra-violet (UV) irradiation as the mutagens. Cells were prepared for random mutagenesis by pelleting exponentially growing cultures (OD ˜0.6-1) of PCC 11801 and resuspending in 1 mL of fresh BG-11M media.\nFor MMS mutagenesis, 1% (v/v) MMS (Sigma-Aldrich, St. Louis, Mo.) was added for 90 seconds, and the reaction was quenched by the addition of 5% (w/w) sodium thiosulfate solution to yield a ˜85-95% kill rate. For UV mutagenesis, the culture was subjected to 90 seconds of UV light to yield a kill rate of ˜90%.\nThe mutagenized cultures were incubated at 38° C. overnight in the dark before selection. To select for overproducers, the phenylalanine (Phe) analog 3-(2-thienyl)-dl-alanine (Sigma-Aldrich, St. Louis, Mo.) was applied to BG-11M agar plates in concentrations ranging from 0.5-2 mg/ml. The wild-type and mutagenized cultures were diluted and spread on BG-11M (to test kill rate) and BG-11M analog-containing plates, and were incubated at 38° C. until colonies appeared. Colonies (i.e. variant Synechococcus elongatus sp. strains) that successfully grew on analog selection plates were picked (e.g., selected) and re-streaked on selective plates for at least three rounds to enable complete segregation of mutations.",
  "data": [
    {"smiles": "COS(C)(=O)=O", "note": "[MMS, methylmethanesulfonate]", "values": [
      {"measurement": "kill rate", "value": "85-95%"}
    ]}
  ]
}
